In patent US12678386B2, “Organic compounds as TRPM8 activators” (Givaudan SA, priority 2021, dated 2026):

Each compound was assayed against T1, hTRPM8 (Homo sapiens, UniProt Q7Z2W7) (assay: Assay on TRPM8 modulators: calcium imaging (Fluo-4, Flexstation) in HEK293 cell line stably expressing hTRPM8). Details: HEK293 cells stably expressing hTRPM8; calcium influx, sigmoidal dose-response fit.
T1 construct: expressed in transfected cells
Format: cell-based
Description: A HEK293 cell line stably expressing hTRPM8 was generated according to Klein et al., (Chem. Senses 36: 649-658, 2011) and receptor activation was monitored by calcium imaging in a Flexstation. For Ca-imaging assays of TRPM8 channel activation, cells were seeded on day 0 at a density of 12000 cells per well in Dulbecco's modified Eagle medium (DMEM) containing 9% foetal bovine serum in black, clear bottom 96-well plates that had been coated with 0.001% polyethyleneimine (molecular weight=60 000, Acros Organics). On day 2, agonists were evaluated via calcium imaging using Fluo-4. Briefly, growth medium was discarded, and the cells were incubated in the dark for 1 h at 37° C. in 50 μL loading buffer consisting of 2.7 μM Fluo-4 AM (Invitrogen) and […] probenecid (Sigma-Aldrich) in DMEM (without serum). After incubation, the plates were washed five times with 100 μL of assay buffer (in mM: 130 NaCl, 5 KCl, 10 HEPES, 2 CaCl2, and 10 glucose, pH7.4.) and further incubated in the dark at room temperature for 30 min. The cells were then washed five times with 100 μL assay buffer and then calcium influx to serial dilutions of inventive compounds were measured in a Flexstation 3 (Molecular Devices). Receptor activation was initiated following addition of 20 μl of a 10-fold concentrated ligand stock solution, which is also prepared in assay buffer. Fluorescence was continuously monitored for 15 seconds prior to ligand addition and for 105 seconds after ligand addition, for a total of 120 seconds. Maximal receptor activation in relation to solvent control and relative to 31.6 μM menthol is determined. Data from serial dilutions were processed with a KNIME workflow to fit a sigmoidal dose-response curve and to extrapolate EC50 values.

T1 sequence (Q7Z2W7 whole entry): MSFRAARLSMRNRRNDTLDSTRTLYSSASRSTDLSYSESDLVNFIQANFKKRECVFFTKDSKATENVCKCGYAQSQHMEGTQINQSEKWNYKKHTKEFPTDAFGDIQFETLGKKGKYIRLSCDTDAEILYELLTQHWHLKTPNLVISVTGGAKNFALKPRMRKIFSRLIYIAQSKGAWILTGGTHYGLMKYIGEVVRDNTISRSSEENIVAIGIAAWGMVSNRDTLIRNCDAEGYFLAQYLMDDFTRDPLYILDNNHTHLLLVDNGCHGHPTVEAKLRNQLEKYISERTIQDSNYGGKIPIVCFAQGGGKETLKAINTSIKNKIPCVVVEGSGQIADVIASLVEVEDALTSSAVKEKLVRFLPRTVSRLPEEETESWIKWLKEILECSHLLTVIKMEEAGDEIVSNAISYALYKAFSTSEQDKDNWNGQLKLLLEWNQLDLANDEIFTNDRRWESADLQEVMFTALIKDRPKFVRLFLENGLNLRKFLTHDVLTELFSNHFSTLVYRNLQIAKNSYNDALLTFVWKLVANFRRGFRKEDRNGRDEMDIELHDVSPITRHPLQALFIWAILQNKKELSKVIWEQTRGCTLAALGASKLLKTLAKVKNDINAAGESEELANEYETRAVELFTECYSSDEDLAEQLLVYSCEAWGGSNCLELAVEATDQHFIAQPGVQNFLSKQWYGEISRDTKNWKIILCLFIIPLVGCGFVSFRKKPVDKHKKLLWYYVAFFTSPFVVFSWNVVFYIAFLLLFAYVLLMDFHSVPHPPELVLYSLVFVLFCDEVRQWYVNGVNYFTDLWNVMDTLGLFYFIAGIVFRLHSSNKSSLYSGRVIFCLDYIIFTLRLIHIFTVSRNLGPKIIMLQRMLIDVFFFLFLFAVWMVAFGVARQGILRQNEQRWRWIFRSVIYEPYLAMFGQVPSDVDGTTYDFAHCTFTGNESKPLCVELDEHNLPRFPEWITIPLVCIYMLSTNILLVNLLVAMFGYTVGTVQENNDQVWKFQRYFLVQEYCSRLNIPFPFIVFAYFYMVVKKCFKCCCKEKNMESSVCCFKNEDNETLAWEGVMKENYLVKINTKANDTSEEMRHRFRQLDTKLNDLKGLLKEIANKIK

SMILES | EC50
CCCCCCCCCCCC(=O)n1cc(-c2ccc(C)cc2)nc1C1CCCCN1C(=O)C(C)SC (stereo not shown) [1-(2-(1-(2-(methylthio)propanoyl)piperidin-2-yl)-4-(p-tolyl)-1H-imidazol-1-yl)dodecan-1-one] | 50 to 300 nM
Cc1ccc(-c2cn(C(=O)C(C)C)c(C3CCCCN3C(=O)C(C)C)n2)cc1 (stereo not shown) [1-(2-(1-isobutyryl-4-(p-tolyl)-1H-imidazol-2-yl)piperidin-1-yl)-2-methylpropan-1-one] | 50 to 300 nM
CCC(C)C(=O)N1CCCCC1c1nc(-c2ccc(C)cc2)cn1C(=O)[C@@H]1C[C@H](C)CC[C@H]1C(C)C (stereo partly drawn) [1-(2-(1-((1R,2S,5R)-2-isopropyl-5-methylcyclohexane-1-carbonyl)-4-(p-tolyl)-1H-imidazol-2-yl)piperidin-1-yl)-2-methylbutan-1-one] | 1000 to 35000 nM
CCCCCCCCCCCC(=O)n1cc(-c2ccc(C)cc2)nc1C1CCCCN1C(=O)C(C)CC (stereo not shown) [1-(2-(1-(2-methylbutanoyl)piperidin-2-yl)-4-(p-tolyl)-1H-imidazol-1-yl)dodecan-1-one] | 300 to 1000 nM
CCC(C)C(=O)N1CCCCC1c1nc(-c2ccc(C)cc2)cn1C(=O)C(C)C (stereo not shown) [1-(2-(1-isobutyryl-4-(p-tolyl)-1 H-imidazol-2-yl)piperidin-1-yl)-2-methylbutan-1-one] | 50 to 300 nM
CSC(C)C(=O)N1CCCCC1c1nc(-c2ccc(C)cc2)cn1C(C)=O (stereo not shown) [1-(2-(1-acetyl-4-(p-tolyl)-1 H-imidazol-2-yl)piperidin-1-yl)-2-(methylthio)propan-1-one] | 50 to 300 nM
CCC(C)C(=O)N1CCCCC1c1nc(-c2ccc(C)cc2)cn1C(=O)COC (stereo not shown) [1-(2-(1-(2-methoxyacetyl)-4-(p-tolyl)-1H-imidazol-2-yl)piperidin-1-yl)-2-methylbutan-1-one] | < 50 nM
Cc1ccc(OCC(=O)N(Cc2cccs2)c2ccn(C(=O)c3ccccc3)n2)cc1 [N-(1-benzoyl-1H-pyrazol-3-yl)-N-(thiophen-2-ylmethyl)-2-(p-tolyloxy)acetamide] | < 50 nM
CSC(C)C(=O)N1CCCCC1c1nc(-c2ccc(C)cc2)cn1C(=O)[C@@H]1C[C@H](C)CC[C@H]1C(C)C (stereo partly drawn) [1-(2-(1-((1R,2S,5R)-2-isopropyl-5-methylcyclohexane-1-carbonyl)-4-(p-tolyl)-1H-imidazol-2-yl)piperidin-1-yl)-2-(methylthio)propan-1-one] | 300 to 1000 nM
CCC(=O)N1CCCCC1c1nc(-c2ccc(C)cc2)cn1C(=O)CC (stereo not shown) [1-(2-(1-propionyl-4-(p-tolyl)-1 H-imidazol-2-yl)piperidin-1-yl)propan-1-one] | 1000 to 35000 nM
CCC(C)C(=O)N1CCCCC1c1nc(-c2ccc(C)cc2)cn1C(=O)COCc1ccccc1 (stereo not shown) [1-(2-(1-(2-(benzyloxy)acetyl)-4-(p-tolyl)-1H-imidazol-2-yl)piperidin-1-yl)-2-methylbutan-1-one] | < 50 nM
CCCCCC(=O)n1cc(-c2ccc(C)cc2)nc1C1CCCCN1C(=O)C(C)SC (stereo not shown) [1-(2-(1-(2-(methylthio)propanoyl)piperidin-2-yl)-4-(p-tolyl)-1H-imidazol-1-yl)hexan-1-one] | 50 to 300 nM
Cc1ccc(OCC(=O)N(Cc2cccs2)c2ccn(C(=O)C(C)C)n2)cc1 [N-(1-isobutyryl-1H-pyrazol-3-yl)-N-(thiophen-2-ylmethyl)-2-(p-tolyloxy)acetamide] | < 50 nM
CCCCCC(=O)n1cc(-c2ccc(C)cc2)nc1C1CCCCN1C(=O)C(C)CC (stereo not shown) [1-(2-(1-(2-methylbutanoyl)piperidin-2-yl)-4-(p-tolyl)-1H-imidazol-1-yl)hexan-1-one] | < 50 nM
CSC(C)C(=O)N1CCCCC1c1nc(-c2ccc(C)cc2)cn1C(=O)C(C)C (stereo not shown) [1-(2-(1-isobutyryl-4-(p-tolyl)-1H-imidazol-2-yl)piperidin-1-yl)-2-(methylthio)propan-1-one] | < 50 nM
CC(=O)n1ccc(N(Cc2cccs2)C(=O)COc2ccc(C)cc2)n1 [N-(1-acetyl-1H-pyrazol-3-yl)-N-(thiophen-2-ylmethyl)-2-(p-tolyloxy)acetamide] | < 50 nM
CCC(C)C(=O)N1CCCCC1c1nc(-c2ccc(C)cc2)cn1C(C)=O (stereo not shown) [1-(2-(1-acetyl-4-(p-tolyl)-1H-imidazol-2-yl)piperidin-1-yl)-2-methylbutan-1-one] | < 50 nM
CSC(C)C(=O)N1CCCCC1c1nc(-c2ccc(C)cc2)cn1C(=O)c1ccccc1 (stereo not shown) [1-(2-(1-benzoyl-4-(p-tolyl)-1 H-imidazol-2-yl)piperidin-1-yl)-2-(methylthio)propan-1-one] | < 50 nM
CSC(C)C(=O)N1CCCCC1c1nc(-c2ccc(C)cc2)cn1C(=O)C(C)SC (stereo not shown) [2-(methylthio)-1-(2-(1-(2-(methylthio)propanoyl)-4-(p-tolyl)-1H-imidazol-2-yl)piperidin-1-yl)propan-1-one] | < 50 nM
